# Data from ChEMBL document CHEMBL1201862, “PubChem BioAssay data set” (2004).
# Active and inactive are the calls of the source.
# Legend:
# [1] = target: T1, Short transient receptor potential channel 4 (Mus musculus, UniProt Q9QUQ5); assay: mouse TRPC4 channel activators, dose response, cell-based, HEK293 TRPC4/mu-opioid, Fluo-4 calcium (AID 434937); type: functional
# T1 sequence (Q9QUQ5 whole entry): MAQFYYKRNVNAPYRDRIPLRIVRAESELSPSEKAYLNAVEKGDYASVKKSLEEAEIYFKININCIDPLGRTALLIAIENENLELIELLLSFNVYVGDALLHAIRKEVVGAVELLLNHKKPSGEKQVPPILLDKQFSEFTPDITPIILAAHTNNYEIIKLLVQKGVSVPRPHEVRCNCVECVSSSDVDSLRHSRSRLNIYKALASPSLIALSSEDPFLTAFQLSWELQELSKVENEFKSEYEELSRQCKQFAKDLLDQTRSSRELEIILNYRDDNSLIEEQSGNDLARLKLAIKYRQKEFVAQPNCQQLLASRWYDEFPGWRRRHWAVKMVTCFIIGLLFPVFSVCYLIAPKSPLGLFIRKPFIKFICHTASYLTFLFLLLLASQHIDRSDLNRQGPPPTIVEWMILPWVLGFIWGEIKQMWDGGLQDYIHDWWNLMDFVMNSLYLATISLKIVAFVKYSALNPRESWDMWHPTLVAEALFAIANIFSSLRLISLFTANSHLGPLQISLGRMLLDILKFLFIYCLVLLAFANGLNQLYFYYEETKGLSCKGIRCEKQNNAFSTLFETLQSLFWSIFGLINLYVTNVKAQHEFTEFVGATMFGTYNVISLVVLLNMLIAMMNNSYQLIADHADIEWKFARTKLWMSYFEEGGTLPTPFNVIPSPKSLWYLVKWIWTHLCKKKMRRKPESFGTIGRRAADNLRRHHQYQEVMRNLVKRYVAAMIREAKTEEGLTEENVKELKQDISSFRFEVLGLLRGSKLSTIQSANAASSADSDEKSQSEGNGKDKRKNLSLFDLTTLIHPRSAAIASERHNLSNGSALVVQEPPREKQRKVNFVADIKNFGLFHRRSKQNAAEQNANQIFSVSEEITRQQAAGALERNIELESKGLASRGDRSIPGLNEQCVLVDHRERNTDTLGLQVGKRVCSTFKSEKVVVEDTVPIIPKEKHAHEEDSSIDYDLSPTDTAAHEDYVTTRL
# [2] = inhibitors of Vif binding to APOBEC3G peptide, primary screen, biochemical, TR-FRET, GST-Vif 1-94, biotin-A3G peptide, dose response retest (AID 1117319); type: functional;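 further: TR-FRET signal of purified GST-Vif binding a biotinylated A3G peptide; inhibitors lower the FRET signal by blocking Vif and A3G binding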
# cells [3] = type: functional, cell-based
# cells [4] = type: functional, cell-based; remark: listed apart in the source
# [5] = MC4R antagonists, dose response, counter-screen for LGR2 antagonist project, cell-based, plate reader, cherry pick (AID 743444); type: functional;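 further: transfected HEK 293 cells stimulated with alpha-MSH peptide; potency of inhibitors of the alpha-MSH evoked signal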
# [6] = A549 cell cytotoxicity, dose response, cytotoxicity control, plate reader, cherry-pick, antagonist series (AID 743412); type: functional, cell-based
# [7] = HepG2 cell cytotoxicity, dose response, cytotoxicity control, plate reader, cherry-pick, antagonist series (AID 743416); type: functional, cell-based
# [8] = LGR2 antagonists, dose response, cell-based, HEK293, CRE-luciferase reporter, cherry pick, set 2 (AID 743343); type: functional;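 further: transfected cells were stimulated with diluted bursicon conditioned medium after compound addition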
# H4 = assay: Luminescence Cell-Based Dose Response HTS to Identify Activators of 5'UTR Stem-Loop Driven Prion Protein mRNA Translation in H4 Neuroglioblastoma Cells. [Related pubchem assays: 1829 (Project Summary), 1814 (Primary HTS)]; type: functional; settings: Homo sapiens
# [9] = Luminescence Cell-Based Dose Response to Identify Activators of 5'UTR Stem-Loop Driven Prion Protein mRNA Translation in H4-C Neuroglioblastoma Cells. [Related pubchem assays: 1829 (Project Summary), 1814 (Primary HTS)]; type: functional
# [10] = Luminescence Cell-Based Dose Response HTS to Identify Activators of Luciferase Translation or Activity in H4 […] Cells. [Related pubchem assays: 1829 (Project Summary), 1814 (Primary HTS)]; type: functional
# [11] = Luminescence Cell-Based Dose Confirmation to Identify Activators of 5'UTR Stem-Loop Driven Alpha-Synuclein mRNA Translation in H4 Neuroglioblastoma Cells. [Related pubchem assays: 1829 (Project Summary), 1814 (Primary HTS)]; type: functional
# [12] = Luminescence Cell-Based Dose Response to Identify Activators of Luciferase Translation or Activity in H4-C Neuroglioblastoma Cells. [Related pubchem assays: 1829 (Project Summary), 1814 (Primary HTS)]; type: functional
# HEK293 [13] = assay: cells; type: functional, cell-based; settings: Homo sapiens
# HEK293 [14] = assay: NOD2 signaling inhibitors in MDP-stimulated cells, cell-based, uHTS, luminescence (AID 2001); type: functional; settings: Homo sapiens
# [15] = target: T2, Zinc finger protein mex-5 (Caenorhabditis elegans, UniProt Q9XUB2); assay: MEX-5/TCR-2 RNA interaction inhibitors, dose response, biochemical, C. elegans, fluorescence polarization (AID 1960)
# T2 sequence (Q9XUB2 whole entry): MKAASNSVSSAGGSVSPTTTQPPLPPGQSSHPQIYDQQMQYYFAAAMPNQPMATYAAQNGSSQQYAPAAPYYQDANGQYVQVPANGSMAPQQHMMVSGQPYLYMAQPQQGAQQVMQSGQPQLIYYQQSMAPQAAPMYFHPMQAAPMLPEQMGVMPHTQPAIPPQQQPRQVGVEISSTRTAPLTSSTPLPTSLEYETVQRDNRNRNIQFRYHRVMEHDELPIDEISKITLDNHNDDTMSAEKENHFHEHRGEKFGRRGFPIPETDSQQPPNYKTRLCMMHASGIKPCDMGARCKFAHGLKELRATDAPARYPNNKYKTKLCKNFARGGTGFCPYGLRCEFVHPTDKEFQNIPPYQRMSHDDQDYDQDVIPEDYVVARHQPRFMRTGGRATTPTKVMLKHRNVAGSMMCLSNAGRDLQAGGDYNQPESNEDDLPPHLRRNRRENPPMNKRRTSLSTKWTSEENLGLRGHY
# [16] = target: T3, RNA-binding protein pos-1 (Caenorhabditis elegans, UniProt G5EF15); assay: inhibitors of POS-1/mex-3 RNA binding, dose response, biochemical, fluorescence polarization (AID 1964);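 further: purified POS-1 fused to maltose binding protein made in E. coli; potency of compounds blocking POS-1 binding to fluorescent RNA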
# T3 sequence (G5EF15 whole entry): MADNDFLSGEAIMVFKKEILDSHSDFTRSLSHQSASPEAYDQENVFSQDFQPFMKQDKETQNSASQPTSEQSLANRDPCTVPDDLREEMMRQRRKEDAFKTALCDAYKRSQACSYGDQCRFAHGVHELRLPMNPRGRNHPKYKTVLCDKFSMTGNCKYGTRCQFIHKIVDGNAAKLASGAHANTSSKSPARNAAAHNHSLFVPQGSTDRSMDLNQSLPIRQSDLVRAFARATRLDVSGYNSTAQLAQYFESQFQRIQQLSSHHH
# HEK293 [17] = assay: NOD1 signaling inhibitors, primary screen, cell-based, luminescence, uHTS (AID 1578); type: functional; settings: Homo sapiens
# HEK293 [18] = assay: cells; type: functional, cell-based; settings: Homo sapiens; remark: listed apart in the source
# [19] = target: T4, Corticotropin-releasing factor receptor 2/Corticotropin-releasing factor-binding protein (Homo sapiens, UniProt P24387+Q13324); assay: Dose Response confirmation of uHTS hits for small molecule antagonists of the CRF-binding protein and CRF-R2 receptor complex.; type: functional; settings: read-out: IC50_Mean
# T4 sequence (Q13324 whole entry): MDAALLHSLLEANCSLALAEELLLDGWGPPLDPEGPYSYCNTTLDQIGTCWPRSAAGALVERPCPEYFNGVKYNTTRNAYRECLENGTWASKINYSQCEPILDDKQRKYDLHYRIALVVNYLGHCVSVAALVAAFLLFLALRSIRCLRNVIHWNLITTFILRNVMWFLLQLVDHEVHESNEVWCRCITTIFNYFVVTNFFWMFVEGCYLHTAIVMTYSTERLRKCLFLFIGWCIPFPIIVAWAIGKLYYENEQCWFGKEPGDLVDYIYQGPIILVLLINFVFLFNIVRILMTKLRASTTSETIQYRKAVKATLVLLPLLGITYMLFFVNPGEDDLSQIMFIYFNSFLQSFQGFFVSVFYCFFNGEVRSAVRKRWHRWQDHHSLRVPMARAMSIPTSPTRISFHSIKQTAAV
# T4 sequence (P24387 whole entry): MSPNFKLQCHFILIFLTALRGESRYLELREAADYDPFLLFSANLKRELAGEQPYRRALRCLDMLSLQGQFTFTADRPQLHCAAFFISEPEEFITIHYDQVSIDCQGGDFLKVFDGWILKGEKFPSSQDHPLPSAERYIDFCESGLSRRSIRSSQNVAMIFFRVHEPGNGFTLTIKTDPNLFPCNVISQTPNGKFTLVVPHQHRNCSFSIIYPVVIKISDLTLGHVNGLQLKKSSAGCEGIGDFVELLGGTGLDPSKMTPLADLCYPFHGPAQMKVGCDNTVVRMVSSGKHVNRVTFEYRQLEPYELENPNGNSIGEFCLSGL
# [20] = CRF-BP/CRF-R2 complex antagonists, dose response, cell-based, uHTS hits, 384-well (AID 651639); type: functional, Homo sapiens; settings: read-out: IC50_Mean
# [21] = target: T4, Corticotropin-releasing factor receptor 2/Corticotropin-releasing factor-binding protein; assay: activators of CRF receptor 2 with binding protein – uHTS hits, confirmation (AID 602473); type: functional; settings: read-out: EC50_Mean
# Genome polyprotein = Genome polyprotein (dengue virus type 2, UniProt P29990); assay: Dengue-2 NS5 methyltransferase inhibitors, primary screen, biochemical, confirmation dose response (AID 588689); type: functional
# [22] = Luminescence Cell-Based Dose Confirmation HTS to Identify Activators of 5'UTR Stem-Loop Driven Alpha-Synuclein mRNA Translation in H4 Neuroglioblastoma Cells. [Related pubchem assays: 1829 (Project Summary), 1814 (Primary HTS)]; type: functional
# Nonstructural protein 1 = Nonstructural protein 1 (Influenza A virus, UniProt Q194T2); type: functional, Influenza A virus (A/California/07/2009(H1N1))
# [23] = target: Heat shock protein HSP 90-alpha (Homo sapiens, UniProt P07900); type: functional, organism-based
# [24] = target: FAD-linked sulfhydryl oxidase ALR (Homo sapiens, UniProt P55789); assay: inhibitors of human ALR sulfhydryl oxidase, dose response, biochemical, H2O2 detection, luminescence, cherry-pick (AID 493248)
# Sequence of FAD-linked sulfhydryl oxidase ALR (P55789 whole entry): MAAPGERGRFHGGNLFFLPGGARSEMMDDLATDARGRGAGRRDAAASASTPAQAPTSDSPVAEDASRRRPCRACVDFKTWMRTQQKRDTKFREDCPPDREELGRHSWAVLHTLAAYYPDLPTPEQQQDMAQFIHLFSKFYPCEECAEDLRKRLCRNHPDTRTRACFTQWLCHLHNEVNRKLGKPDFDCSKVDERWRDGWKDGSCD
# Sequence of Genome polyprotein (P29990 2492-3391 limits assumed): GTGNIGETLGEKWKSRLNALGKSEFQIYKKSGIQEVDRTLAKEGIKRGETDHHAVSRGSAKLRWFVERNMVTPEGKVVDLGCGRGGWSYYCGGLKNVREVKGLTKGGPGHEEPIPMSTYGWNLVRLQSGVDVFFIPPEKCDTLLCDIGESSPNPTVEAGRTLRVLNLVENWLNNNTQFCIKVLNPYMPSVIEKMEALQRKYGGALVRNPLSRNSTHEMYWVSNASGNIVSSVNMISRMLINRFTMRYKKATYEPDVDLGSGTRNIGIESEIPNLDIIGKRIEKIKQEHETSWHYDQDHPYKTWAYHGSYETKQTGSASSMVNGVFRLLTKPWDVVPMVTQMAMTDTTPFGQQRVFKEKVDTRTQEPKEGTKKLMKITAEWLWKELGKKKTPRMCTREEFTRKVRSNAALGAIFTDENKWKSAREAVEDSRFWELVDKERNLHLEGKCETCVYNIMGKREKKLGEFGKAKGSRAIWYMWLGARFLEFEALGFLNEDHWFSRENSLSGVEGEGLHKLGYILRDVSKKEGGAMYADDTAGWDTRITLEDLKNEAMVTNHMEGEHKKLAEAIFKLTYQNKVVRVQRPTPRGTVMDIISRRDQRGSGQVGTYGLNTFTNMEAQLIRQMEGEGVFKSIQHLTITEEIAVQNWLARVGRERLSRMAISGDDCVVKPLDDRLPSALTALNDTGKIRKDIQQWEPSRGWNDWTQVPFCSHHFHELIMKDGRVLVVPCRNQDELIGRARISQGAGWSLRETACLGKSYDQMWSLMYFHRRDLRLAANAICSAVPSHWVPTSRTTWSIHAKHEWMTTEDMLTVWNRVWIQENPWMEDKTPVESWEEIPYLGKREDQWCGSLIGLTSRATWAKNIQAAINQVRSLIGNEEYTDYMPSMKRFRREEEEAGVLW
# Sequence of Nonstructural protein 1 (Q194T2 whole entry): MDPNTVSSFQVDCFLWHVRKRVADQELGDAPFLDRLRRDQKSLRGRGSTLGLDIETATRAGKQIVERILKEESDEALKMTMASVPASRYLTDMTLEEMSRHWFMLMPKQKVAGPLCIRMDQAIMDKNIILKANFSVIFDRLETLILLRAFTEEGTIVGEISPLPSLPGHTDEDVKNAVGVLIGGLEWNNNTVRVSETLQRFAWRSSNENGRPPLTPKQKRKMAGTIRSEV
smiles,measurement,setting,value
N=C(N)NN=C1CCCCCCCCCCC1,EC50,[1],7.5 µM (active)
Cc1nc2nc(-c3ccco3)nn2c(C)c1Cl,IC50,[2],> 100 µM (active)
same,EC50,cells [3],> 350 µM (not active)
same,EC50,cells [4],> 350 µM (not active)
Cc1cc(C)n2c(Nc3ccc4c(c3)OCCO4)c(-c3cc4ccccc4o3)nc2n1,AC50,[5],22.8 µM (active)
same,AC50,[6],29.8 µM (active)
same,AC50,[7],> 52 µM (inactive)
same,AC50,[8],12.7 µM (active)
COC(=O)CSc1nc(-c2cccs2)ccc1C#N,EC50,H4,0.261 µM (active)
same,EC50,[9],0.307 µM (active)
same,EC50,[10],< 0.1 µM (active)
same,EC50,[11],0.219 µM (active)
same,EC50,[12],0.179 µM (active)
Cc1cccc2cc3c(N)c(C(=O)Nc4ccc(N5CCOCC5)cc4)sc3nc12,IC50,HEK293 [13],> 20 µM (inactive)
same,IC50,HEK293 [14],7.54 µM (inactive)
same,EC50,[15],> 300 µM (not active)
same,EC50,[16],> 300 µM (not active)
same,EC50,HEK293 [17],18.7 µM (active)
same,IC50,HEK293 [18],5.5 µM (active)
CCC(=O)N1CCc2cc(Br)cc(S(=O)(=O)NCCCN(C)Cc3ccccc3)c21,EC50,[1],0.0947 µM (active)
Cc1cccc(CSc2nc3c(c(=O)n2C)SCC3)c1,IC50,[19],< 0.368 µM (active)
same,IC50,[20],> 20 µM (inactive)
same,EC50,[21],> 53 µM (inactive)
C#CCOc1ccc(/C=C2/C(=O)N(c3ccc(S(N)(=O)=O)cc3)N=C2C)cc1OC,IC50,Genome polyprotein,> 100 µM (active)
N=C(CS(=O)(=O)c1ccccn1)NOC(=O)c1ccccc1Cl,EC50,H4,10.7 µM (active)
same,EC50,[9],0.769 µM (active)
same,EC50,[10],< 0.1 µM (active)
same,EC50,[11],0.244 µM (active)
same,EC50,[22],0.17 µM (active)
same,EC50,[12],5.85 µM (active)
COc1ccc(/C=c2\sc3nc(=O)c(C)nn3c2=O)c(OC)c1,EC50,[15],88 µM (active)
same,IC50,Genome polyprotein,22.1 µM (active)
same,EC50,[16],> 300 µM (not active)
Cc1cs/c(=N\c2ccccc2)n1Cc1ccco1,IC50,[19],38.4 µM (active)
same,IC50,[20],> 20 µM (inactive)
same,EC50,[21],> 53 µM (inactive)
CC1C/C(=N/N2C(=O)CSC2=S)CC(C)(C)C1 (stereo not drawn),IC50,[2],> 100 µM (active)
CC(=NNC(=S)N(Cc1ccccn1)Cc1ccccn1)c1cnccn1,IC50,Nonstructural protein 1,1.18 µM (active)
same,AC50,[23],3.3 µM (active)
Oc1c(C(c2ccccc2)N2CCOCC2)ccc2ccccc12 (stereo not drawn),AC50,[23],7.26 µM (active)
Cc1ccc(-n2nnnc2SCc2nnc(-c3ccccc3Br)o2)cc1,IC50,[19],11 µM (active)
same,IC50,[20],3.85 µM (active)
same,EC50,[21],> 53 µM (inactive)
CCOC(=O)c1cc(C)n(CCc2c[nH]cn2)c1C,EC50,[1],0.0533 µM (active)
Cc1ccccc1N=C(S)NCCc1ccccn1,EC50,[1],5.31 µM (active)
COc1ccc(CNCCc2c[nH]c3ccccc23)cc1OC,EC50,[1],5.96 µM (active)
S=C(NCCc1ccccc1)N1CCC2CC1c1c(Cl)cccc12 (stereo not drawn),IC50,[19],28.9 µM (active)
same,IC50,[20],> 20 µM (inactive)
same,EC50,[21],> 53 µM (inactive)
CCCn1nc(Oc2nc(SC)nc(N(C)C)n2)ccc1=O,IC50,[2],> 100 µM (active)
COc1cc(NC(=O)CSc2ncnc3sc4c(c23)CCC(C)C4)c(C(=O)O)cc1OC (stereo not drawn),IC50,Genome polyprotein,86 µM (active)
COc1ccc(NC(=O)CN2CCC(C(N)=O)CC2)cc1,IC50,[2],> 100 µM (active)
COC(=O)c1ccccc1NC(=O)c1cccc(COc2ccccc2Cl)c1,EC50,[9],0.809 µM (active)
same,EC50,[10],< 0.1 µM (active)
same,EC50,[11],0.299 µM (active)
same,EC50,[12],0.295 µM (active)
CCCC(=O)N1CCc2cc(-c3nc(N)sc3C)ccc21,IC50,[19],> 47.1 µM (inactive)
same,EC50,H4,44.6 µM (active)
same,EC50,[10],31.9 µM (active)
same,EC50,[1],0.376 µM (active)
same,AC50,[24],0.149 µM (active)
same,EC50,[22],43.5 µM (active)
same,EC50,[21],> 53 µM (inactive)
